Tests used:
Test in all cases: relative viability (nuclei count vs DMSO), 5 days (fraction); higher = more cells survive
[1] = compound: O=C(NC1CCNCC1)c1n[nH]cc1NC(=O)c1c(Cl)cccc1Cl [AT-7519] + Cc1nc(NC(=O)N2CCC[C@H]2C(N)=O)sc1-c1ccnc(C(C)(C)C(F)(F)F)c1 [Alpelisib] (partner 2 µM)
Procedure, shortened: (§1)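 Lung cancer cell lines in 1536-well plates were dosed by pin tool the day after seeding, either with one drug alone or with a fixed anchor-drug dose plus five library-drug doses (not always all listed) in √10 steps. After 5 days, cells were fixed and their nuclei stained in one step (final 0.05% Triton X-100, 1% formaldehyde, 1 ug/ml Hoechst), then counted on 4× images. Relative viability is the nuclei count in treated wells divided by that in vehicle wells. Values are medians of duplicate plates.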

[2] = compound: C1=CC2=C(C=C(C(=C2N=C1)O)N=NC3=CC4=C(C=C3)C=C(C=C4)S(=O)(=O)O)S(=O)(=O)O + COc1cccc2cc(-c3nc([C@H]4CC[C@H](C(=O)O)CC4)n4ncnc(N)c34)[nH]c12 [OSI-027] (partner 0.5 µM)
Procedure, shortened: as §1

[3] = compound: C1=CC2=C(C=C(C(=C2N=C1)O)N=NC3=CC4=C(C=C3)C=C(C=C4)S(=O)(=O)O)S(=O)(=O)O + NC(=O)Nc1cc(-c2cccc(F)c2)sc1C(=O)N[C@H]1CCCNC1 [AZD7762] (partner 0.2 µM)
Procedure, shortened: as §1

[4] = compound: C1=CC2=C(C=C(C(=C2N=C1)O)N=NC3=CC4=C(C=C3)C=C(C=C4)S(=O)(=O)O)S(=O)(=O)O + Cc1cc(Nc2cc(N3CCN(C)CC3)nc(Sc3ccc(NC(=O)C4CC4)cc3)n2)n[nH]1 [Tozasertib] (partner 0.1 µM)
Procedure, shortened: as §1

Cell Line | relative viability ([1]; first compound 0.01 µM) | relative viability ([1]; first compound 0.03162 µM) | relative viability ([1]; first compound 0.3162 µM) | relative viability ([1]; first compound 1 µM) | relative viability ([2]; first compound 0.08 µM) | relative viability ([2]; first compound 0.253 µM) | relative viability ([2]; first compound 0.8 µM) | relative viability ([2]; first compound 2.53 µM) | relative viability ([2]; first compound 8 µM) | relative viability ([3]; first compound 0.08 µM) | relative viability ([3]; first compound 0.253 µM) | relative viability ([3]; first compound 0.8 µM) | relative viability ([3]; first compound 2.53 µM) | relative viability ([3]; first compound 8 µM) | relative viability ([4]; first compound 0.08 µM) | relative viability ([4]; first compound 0.253 µM) | relative viability ([4]; first compound 0.8 µM) | relative viability ([4]; first compound 2.53 µM) | relative viability ([4]; first compound 8 µM)
HCC-78 | 0.142 | 0.286 | 0.305 | 0.283 | 0.436 | 0.368 | 0.417 | 0.346 | 0.348 | 0.725 | 0.628 | 0.675 | 0.657 | 0.591 | 0.41 | 0.345 | 0.469 | 0.488 | 0.349
NCI-H727 | 0.649 | 0.486 | 0.546 | 0.226 | 0.623 | 0.549 | 0.54 | 0.592 | 0.578 | 0.689 | 0.639 | 0.646 | 0.639 | 0.658 | 0.535 | 0.653 | 0.87 | 0.767 | 0.441
NCI-H2087 | 1.14 | 1.21 | 1.01 | 0.161 | 0.563 | 0.536 | 0.477 | 0.61 | 0.682 | 1.31 | 1.51 | 1.27 | 1.38 | 1.29 | 0.237 | 0.258 | 0.238 | 0.237 | 0.267
BEN | 1.03 | 0.954 | 1.12 | 0.76 | 0.289 | 0.303 | 0.244 | 0.297 | 0.292 | 0.694 | 0.749 | 0.729 | 0.77 | 0.557 | 0.55 | 0.535 | 0.572 | 0.548 | 0.47
LCLC-103H | 0.956 | 0.908 | 0.976 | 0.952 | 0.475 | 0.485 | 0.444 | 0.463 | 0.517 | 0.85 | 0.801 | 0.758 | 0.774 | 0.891 | 0.514 | 0.504 | 0.457 | 0.477 | 0.501
EKVX | 0.836 | 0.86 | 0.76 | 0.745 | 0.691 | 0.682 | 0.684 | 0.721 | 0.539 | 0.836 | 0.78 | 0.61 | 0.702 | 0.702 | 0.458 | 0.44 | 0.34 | 0.446 | 0.389
LXF-289 | 1.03 | 1.07 | 1.08 | 0.921 | 0.84 | 0.733 | 0.745 | 0.809 | 0.788 | 1.23 | 1.06 | 1.07 | 1.11 | 1.15 | 0.234 | 0.159 | 0.179 | 0.19 | 0.228
ABC-1 | 0.962 | 1.01 | 0.724 | 0.416 | 0.435 | 0.336 | 0.463 | 0.499 | 0.64 | 0.741 |  | 0.831 | 0.691 | 0.667 | 0.155 | 0.199 | 0.176 | 0.167 | 0.132
NCI-H650 | 1.09 | 1 | 1.09 | 1.08 | 0.546 | 0.511 | 0.499 | 0.494 | 0.293 | 0.872 | 0.996 | 0.967 | 0.922 | 0.998 | 0.703 | 0.671 | 0.749 | 0.737 | 0.79
NCI-H2085 | 0.899 | 0.926 | 0.941 | 0.656 | 0.901 | 0.716 | 0.716 | 0.974 | 0.842 | 0.874 | 1.03 | 0.902 | 0.971 | 0.969 | 0.928 | 0.742 | 0.784 | 0.886 | 0.813
NCI-H1793 | 0.574 | 0.632 | 0.907 | 0.774 | 0.285 | 0.289 | 0.246 | 0.264 | 0.314 | 0.411 | 0.407 | 0.481 | 0.497 | 0.455 | 0.436 | 0.301 | 0.395 | 0.449 | 0.396
LC-2-ad | 0.914 | 0.843 | 0.904 | 0.472 | 0.936 | 0.855 | 0.626 | 0.906 | 0.723 | 0.894 | 0.802 | 0.829 | 0.847 | 0.796 | 0.518 | 0.476 | 0.376 | 0.519 | 0.325
NCI-H1355 | 0.813 | 0.805 | 0.884 | 0.547 | 0.386 | 0.46 | 0.423 | 0.459 | 0.452 | 0.801 | 0.726 | 0.723 | 0.824 | 0.64 | 0.629 | 0.608 | 0.627 | 0.595 | 0.641
H3255 | 0.712 | 0.678 | 0.833 | 0.519 | 0.544 | 0.633 | 0.595 | 0.567 | 0.655 | 0.893 | 0.881 | 0.89 | 0.939 | 0.899 | 0.59 | 0.705 | 0.655 | 0.604 | 0.864
NCI-H1993 | 0.728 | 0.677 | 0.676 | 0.614 | 0.553 | 0.547 | 0.556 | 0.601 | 0.584 | 0.906 | 0.712 | 0.702 | 0.845 | 0.832 | 0.576 | 0.576 | 0.581 | 0.56 | 0.548

From the supplement of paper PMC10307832
